Experiments:
CK1α = molecular target: T1, CK1α (Homo sapiens, UniProt P48729+Q96SW2); experiment: HiBiT degradation assay, CK1α, Procedure A; format: cell-based
T1 construct: CSNK1A1-HiBit KI HEK293(LgBit) Cells; host or cells: HEK293(LgBit) knock-in cells
Summary of the method: (§1)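 Luminescence from HiBiT lytic detection, read after 20 min shaking, gave DC50 and Ymin by 4-parameter fit. Before that, cells (1×10^6 cells/ml, DMEM+10% FBS) sat 6 h at 37° C on 10-point compound series (10 μM–0.005 μM, 0.1% DMSO).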

GSPT1 = GSPT1 (Homo sapiens, UniProt P15170+Q96SW2); experiment: HiBiT degradation assay, GSPT1, Procedure A; format: cell-based; parameters: HiBit-GSPT1 KI HEK293(LgBit) Cells; host or cells: HEK293(LgBit) knock-in cells
GSPT1, sequence (P15170 whole entry): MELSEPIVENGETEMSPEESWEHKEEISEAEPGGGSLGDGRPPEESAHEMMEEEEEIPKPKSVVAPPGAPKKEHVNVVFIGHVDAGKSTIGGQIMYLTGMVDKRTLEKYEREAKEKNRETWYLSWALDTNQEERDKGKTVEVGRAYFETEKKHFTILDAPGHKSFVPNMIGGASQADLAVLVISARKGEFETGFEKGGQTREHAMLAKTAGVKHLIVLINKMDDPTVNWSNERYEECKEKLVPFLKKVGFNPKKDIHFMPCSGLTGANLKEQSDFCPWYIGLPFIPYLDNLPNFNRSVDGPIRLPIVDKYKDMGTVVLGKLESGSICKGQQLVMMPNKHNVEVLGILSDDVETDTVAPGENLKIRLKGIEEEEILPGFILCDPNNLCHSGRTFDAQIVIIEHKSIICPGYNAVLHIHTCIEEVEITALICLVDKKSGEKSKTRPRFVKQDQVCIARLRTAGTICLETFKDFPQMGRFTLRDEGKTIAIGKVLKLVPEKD
GSPT1, sequence (Q96SW2 whole entry): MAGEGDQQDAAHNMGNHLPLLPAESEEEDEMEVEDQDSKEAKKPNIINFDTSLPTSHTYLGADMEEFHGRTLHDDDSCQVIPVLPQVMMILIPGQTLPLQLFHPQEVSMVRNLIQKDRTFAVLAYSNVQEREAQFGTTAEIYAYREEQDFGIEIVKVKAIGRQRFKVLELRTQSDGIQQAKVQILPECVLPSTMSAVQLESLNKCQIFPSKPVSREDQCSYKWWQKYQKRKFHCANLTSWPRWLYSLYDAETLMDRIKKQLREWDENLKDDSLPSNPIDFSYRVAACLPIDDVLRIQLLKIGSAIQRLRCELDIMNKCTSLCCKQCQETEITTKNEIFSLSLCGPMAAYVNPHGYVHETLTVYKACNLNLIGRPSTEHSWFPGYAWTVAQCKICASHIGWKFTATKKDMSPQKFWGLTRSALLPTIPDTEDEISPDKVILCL
GSPT1, sequence (Q16531 whole entry partner): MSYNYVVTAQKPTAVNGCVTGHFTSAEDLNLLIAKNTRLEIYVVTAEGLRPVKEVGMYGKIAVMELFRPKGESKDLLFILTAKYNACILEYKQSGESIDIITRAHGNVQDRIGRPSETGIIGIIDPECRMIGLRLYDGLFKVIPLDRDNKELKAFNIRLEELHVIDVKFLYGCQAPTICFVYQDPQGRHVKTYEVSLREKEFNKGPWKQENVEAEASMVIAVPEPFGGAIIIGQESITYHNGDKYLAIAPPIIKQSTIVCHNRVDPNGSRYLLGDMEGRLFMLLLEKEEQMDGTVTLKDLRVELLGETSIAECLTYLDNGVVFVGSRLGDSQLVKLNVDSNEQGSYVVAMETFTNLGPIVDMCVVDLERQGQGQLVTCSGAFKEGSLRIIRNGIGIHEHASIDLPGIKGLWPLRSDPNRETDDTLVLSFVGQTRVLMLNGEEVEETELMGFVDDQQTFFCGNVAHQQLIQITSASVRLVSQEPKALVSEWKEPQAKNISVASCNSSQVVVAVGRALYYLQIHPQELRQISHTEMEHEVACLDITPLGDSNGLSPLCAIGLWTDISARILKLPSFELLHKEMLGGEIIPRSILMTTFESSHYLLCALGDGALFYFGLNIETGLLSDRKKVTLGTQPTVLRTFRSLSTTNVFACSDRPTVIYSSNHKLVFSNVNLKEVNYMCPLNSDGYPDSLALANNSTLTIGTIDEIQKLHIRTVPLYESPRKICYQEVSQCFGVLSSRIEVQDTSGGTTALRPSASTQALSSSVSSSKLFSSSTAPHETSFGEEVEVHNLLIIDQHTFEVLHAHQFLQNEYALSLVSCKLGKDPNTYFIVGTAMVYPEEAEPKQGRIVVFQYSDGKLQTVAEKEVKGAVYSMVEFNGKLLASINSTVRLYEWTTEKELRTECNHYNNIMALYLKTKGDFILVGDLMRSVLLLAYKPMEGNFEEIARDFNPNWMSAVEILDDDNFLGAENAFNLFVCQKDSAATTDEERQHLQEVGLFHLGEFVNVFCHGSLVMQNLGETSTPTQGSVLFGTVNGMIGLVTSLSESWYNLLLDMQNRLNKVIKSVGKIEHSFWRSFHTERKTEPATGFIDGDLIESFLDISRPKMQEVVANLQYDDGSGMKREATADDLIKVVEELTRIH
Summary of the method: as §1

T1 sequence (P48729 whole entry): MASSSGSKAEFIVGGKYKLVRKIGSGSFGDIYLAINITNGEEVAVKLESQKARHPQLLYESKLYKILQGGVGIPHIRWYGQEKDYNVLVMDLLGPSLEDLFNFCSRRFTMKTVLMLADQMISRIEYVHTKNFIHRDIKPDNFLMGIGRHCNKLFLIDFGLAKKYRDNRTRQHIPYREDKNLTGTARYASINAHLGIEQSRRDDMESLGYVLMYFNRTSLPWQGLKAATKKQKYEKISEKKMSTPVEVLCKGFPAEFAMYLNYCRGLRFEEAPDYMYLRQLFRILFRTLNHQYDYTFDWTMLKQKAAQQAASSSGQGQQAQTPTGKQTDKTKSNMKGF
T1 sequence (Q96SW2 whole entry): as the sequence (Q96SW2 whole entry) above
T1 sequence (Q16531 whole entry partner): as the sequence (Q16531 whole entry partner) above

| CK1α Ymin (CK1α; six hours) | DC50 (CK1α; six hours) [nM] | DC50 (GSPT1; six hours) [nM] | GSPT1 Ymin (GSPT1; six hours) | CK1α Ymin (CK1α; six hours incubation) | DC50 (CK1α; six hours incubation) [nM] | DC50 (GSPT1; six hours incubation) [nM] | GSPT1 Ymin (GSPT1; six hours incubation) | SMILES |
| --- | --- | --- | --- | --- | --- | --- | --- | --- |
| E (E = >25-75% remaining) | ≥ 25 | ≥ 25 | F (F = >75-100% remaining) | – | – | – | – | Cn1ccc(-c2c(-c3ccc4c(c3)CN(C3CCC(=O)NC3=O)C4=O)cnn2C)n1 (centres unmarked) [Example 470] |
| C (C = 0-10% remaining) | < 25 | ≥ 25 | F (F = >75-100% remaining) | – | – | – | – | COc1ccc(-c2nc(-c3ccc4c(c3)CN(C3CCC(=O)NC3=O)C4=O)cn2C)cc1Cl (centres unmarked) [Example 584] |
| E (E = >25-75% remaining) | ≥ 25 | ≥ 25 | F (F = >75-100% remaining) | – | – | – | – | Cn1ncc(-c2ccc3c(c2)CN(C2CCC(=O)NC2=O)C3=O)c1-c1ccc(F)cc1C#N (centres unmarked) [Example 438] |
| C (C = 0-10% remaining) | < 25 | ≥ 25 | F (F = >75-100% remaining) | – | – | – | – | Cc1nc2ccc(-c3c(-c4ccc5c(c4)CN(C4CCC(=O)NC4=O)C5=O)ncn3C)cc2[nH]1 (centres unmarked) [Example 501] |
| E (E = >25-75% remaining) | ≥ 25 | ≥ 25 | F (F = >75-100% remaining) | – | – | – | – | Cn1cnc(-c2ccc3c(c2)CN(C2CCC(=O)NC2=O)C3=O)c1-c1cnn(Cc2cccnc2)c1 (centres unmarked) [Example 503] |
| E (E = >25-75% remaining) | ≥ 25 | ≥ 25 | F (F = >75-100% remaining) | – | – | – | – | O=C1CCC(N2Cc3cc(-n4cncc4-c4ccccc4)ccc3C2=O)C(=O)N1 (centres unmarked) [Example 607, 3-(1-oxo-5-(5-phenyl-1H-imidazol-1-yl)isoindolin-2-yl)piperidine-2,6-dione] |
| – | – | – | – | D (D = >10- 25% remaining) | < 25 | ≥ 25 | F (F = >75-100% remaining) | Cc1cncc(-c2c(-c3ccc4c(c3)CN(C3CCC(=O)NC3=O)C4=O)ncn2C)c1 (centres unmarked) [Example 321] |
| D (D = >10- 25% remaining) | < 25 | < 25 | F (F = >75-100% remaining) | – | – | – | – | Cn1cc(-c2ccc3c(c2)CN(C2CCC(=O)NC2=O)C3=O)nc1-c1ccc(C#N)nc1 (centres unmarked) [Example 572] |
| C (C = 0-10% remaining) | < 25 | < 25 | E (E = >25-75% remaining) | – | – | – | – | Cn1cnc(-c2ccc3c(c2)CN(C2CCC(=O)NC2=O)C3=O)c1-c1ccc(N)cc1 (centres unmarked) [Example 439] |
| F (F = >75-100% remaining) | ≥ 25 | ≥ 25 | F (F = >75-100% remaining) | – | – | – | – | Cn1ncc(-c2ccc3c(c2)CN(C2CCC(=O)NC2=O)C3=O)c1-c1ccnnc1 (centres unmarked) [Example 450] |
| – | – | – | – | C (C = 0-10% remaining) | < 25 | ≥ 25 | F (F = >75-100% remaining) | Cc1c(-c2ccc3c(c2)CN(C2CCC(=O)NC2=O)C3=O)nc(-c2ccccc2)n1C (centres unmarked) [Example 338, 3-(5-(1,5-dimethyl-2-phenyl-1H-imidazol-4-yl)-1-oxoisoindolin-2-yl)piperidine-2,6-dione] |
| – | – | – | – | E (E = >25-75% remaining) | < 25 | ≥ 25 | F (F = >75-100% remaining) | COc1cccc(-c2c(-c3ccc4c(c3)CN(C3CCC(=O)NC3=O)C4=O)ncn2C)c1 (centres unmarked) [Example 345] |
| E (E = >25-75% remaining) | < 25 | ≥ 25 | F (F = >75-100% remaining) | – | – | – | – | Cc1ncccc1-c1c(-c2ccc3c(c2)CN(C2CCC(=O)NC2=O)C3=O)ncn1C (centres unmarked) [Example 507] |
| D (D = >10- 25% remaining) | < 25 | ≥ 25 | F (F = >75-100% remaining) | – | – | – | – | Cn1cnc(-c2ccc3c(c2)CN(C2CCC(=O)NC2=O)C3=O)c1-c1cnn(C2CCC2)c1 (centres unmarked) [Example 511] |
| D (D = >10- 25% remaining) | < 25 | ≥ 25 | F (F = >75-100% remaining) | – | – | – | – | CCCCCCc1ccc(-c2nc(-c3ccc4c(c3)CN(C3CCC(=O)NC3=O)C4=O)cn2C)cc1 (centres unmarked) [Example 575] |

Second part, the compound before the results:

| SMILES | CK1α Ymin (CK1α; six hours) | DC50 (CK1α; six hours) [nM] | DC50 (GSPT1; six hours) [nM] | GSPT1 Ymin (GSPT1; six hours) | CK1α Ymin (CK1α; six hours incubation) | DC50 (CK1α; six hours incubation) [nM] | DC50 (GSPT1; six hours incubation) [nM] | GSPT1 Ymin (GSPT1; six hours incubation) |
| --- | --- | --- | --- | --- | --- | --- | --- | --- |
| Cn1ncc(-c2ccc3c(c2)CN(C2CCC(=O)NC2=O)C3=O)c1-c1ccc(OCc2ccccc2)c(Cl)c1 (centres unmarked) [Example 81] | – | – | – | – | E (E = >25-75% remaining) | ≥ 25 | ≥ 25 | F (F = >75-100% remaining) |
| COc1cc(-c2c(-c3ccc4c(c3)CN(C3CCC(=O)NC3=O)C4=O)ncn2C)ccc1C (centres unmarked) [Example 251] | – | – | – | – | D (D = >10- 25% remaining) | < 25 | ≥ 25 | F (F = >75-100% remaining) |
| COc1cc(F)ccc1-c1c(-c2ccc3c(c2)CN(C2CCC(=O)NC2=O)C3=O)ncn1C (centres unmarked) [Example 192] | – | – | – | – | E (E = >25-75% remaining) | < 25 | < 25 | E (E = >25-75% remaining) |
| Cn1cnc(-c2ccc3c(c2)CN(C2CCC(=O)NC2=O)C3=O)c1-c1cccc(C#N)c1 (centres unmarked) [Example 232] | – | – | – | – | D (D = >10- 25% remaining) | < 25 | ≥ 25 | F (F = >75-100% remaining) |
| Cn1ncc(-c2ccc3c(c2)CN(C2CCC(=O)NC2=O)C3=O)c1-c1ccc(CO)cc1 (centres unmarked) [Example 156] | – | – | – | – | D (D = >10- 25% remaining) | ≥ 25 | ≥ 25 | F (F = >75-100% remaining) |
| Cn1cnc(-c2ccc3c(c2)CN(C2CCC(=O)NC2=O)C3=O)c1-c1ccc(OCc2ccccc2)c(Cl)c1 (centres unmarked) [Example 304] | – | – | – | – | D (D = >10- 25% remaining) | < 25 | < 25 | F (F = >75-100% remaining) |
| O=C1CCC(N2Cc3cc(-c4c[nH]nc4-c4ccncc4)ccc3C2=O)C(=O)N1 (centres unmarked) [Example 38, 3-(1-Oxo-5-(3-(pyridin-4-yl)-1H-pyrazol-4-yl)isoindolin-2-yl)piperidine-2,6-dione] | – | – | – | – | E (E = >25-75% remaining) | ≥ 25 | ≥ 25 | F (F = >75-100% remaining) |
| Cc1cc(-c2c(-c3ccc4c(c3)CN(C3CCC(=O)NC3=O)C4=O)cnn2C)ccc1Cl (centres unmarked) [Example 99] | – | – | – | – | E (E = >25-75% remaining) | < 25 | ≥ 25 | F (F = >75-100% remaining) |
| Cn1cnc(-c2ccc3c(c2)CN(C2CCC(=O)NC2=O)C3=O)c1-c1cccc(CN2CCCC2)c1 (centres unmarked) [Example 295] | – | – | – | – | D (D = >10- 25% remaining) | ≥ 25 | ≥ 25 | F (F = >75-100% remaining) |
| CC(C)Cn1cnc(-c2ccc3c(c2)CN(C2CCC(=O)NC2=O)C3=O)c1-c1ccccc1 (centres unmarked) [Example 22, 3-(5-(1-Isobutyl-5-phenyl-1H-imidazol-4-yl)-1-oxoisoindolin-2-yl)piperidine-2,6-dione] | – | – | – | – | C (C = 0-10% remaining) | < 25 | < 25 | E (E = >25-75% remaining) |
| COc1cccc(-c2c(-c3ccc4c(c3)CN(C3CCC(=O)NC3=O)C4=O)ncn2C)c1F (centres unmarked) [Example 190] | – | – | – | – | E (E = >25-75% remaining) | < 25 | < 25 | E (E = >25-75% remaining) |
| Cn1ncc(-c2ccc3c(c2)CN(C2CCC(=O)NC2=O)C3=O)c1-c1ccc(Cl)s1 (centres unmarked) [Example 68] | – | – | – | – | D (D = >10- 25% remaining) | < 25 | ≥ 25 | F (F = >75-100% remaining) |
| CNC(=O)c1ccc(-c2c(-c3ccc4c(c3)CN(C3CCC(=O)NC3=O)C4=O)cnn2C)cc1 (centres unmarked) [Example 56] | – | – | – | – | D (D = >10- 25% remaining) | ≥ 25 | ≥ 25 | F (F = >75-100% remaining) |
| Cn1cnc(-c2ccc3c(c2)CN(C2CCC(=O)NC2=O)C3=O)c1-c1cccc(C(F)F)c1 (centres unmarked) [Example 202] | – | – | – | – | D (D = >10- 25% remaining) | < 25 | ≥ 25 | F (F = >75-100% remaining) |
